Measured values taken from publication PMC8100071, “Lipid binding by the N-terminal motif mediates plasma membrane localization of Bordetella effector protein BteA” (The Journal of Biological Chemistry, 2021).
Where two headings read alike, the source gives them in different places.

Target: T1, LRT (GST-tagged N-terminal LRT domain of BteA) (Bordetella pertussis, UniProt Q7VSD3)
T1 construct: gene BP0500; N-terminal lipid raft targeting (membrane localization) domain, aa 1-130 of 656; N-terminal GST tag (pGEX-6P1) kept; E. coli Rosetta 2
T1 sequence (Q7VSD3 entry or part of it): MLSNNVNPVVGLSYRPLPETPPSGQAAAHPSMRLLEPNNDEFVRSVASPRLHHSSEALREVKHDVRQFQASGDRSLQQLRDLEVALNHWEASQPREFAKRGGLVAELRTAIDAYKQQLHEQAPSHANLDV
Assay: SPR steady state, immobilized liposomes
Format: binding

SMILES: CCCCCCCC/C=C\CCCCCCCC(=O)O[C@H](COC(=O)CCCCCCCCCCCCCCC)COP(=O)(O)OC[C@H](N)C(=O)O [PS]
- Kd (read-out: KD (apparent), PS/PC 20:80 (mol) liposomes, 100 nm, 50 mM Tris-HCl pH 7.4, 150 mM NaCl, 0.005% Tween-20, 25 °C, Kd in terms of protein concentration, unit nM shared in the sentence, abstract gives ∼1.2 μM): 1230 ± 245 nM

SMILES: CCCCCCCC/C=C\CCCCCCCC(=O)O[C@H](COC(=O)CCCCCCCCCCCCCCC)COP(=O)(O)O [PA]
- Kd (read-out: KD (apparent), PA/PC 5:95 (mol) liposomes, 100 nm, 50 mM Tris-HCl pH 7.4, 150 mM NaCl, 0.005% Tween-20, 25 °C, Kd in terms of protein concentration): 492 ± 86 nM

SMILES: CCCCCCCC/C=C\CCCCCCCC(=O)OC[C@H](COP(=O)(O)O[C@@H]1[C@H](O)[C@H](O)[C@@H](OP(=O)(O)O)[C@H](OP(=O)(O)O)[C@H]1O)OC(=O)CCCCCCC/C=C\CCCCCCCC [PIP2]
- Kd: 446 ± 65 nM
